Measured values from patent US9708314B2, “Heterocyclic amide compound” (NISSAN CHEMICAL INDUSTRIES, LTD., priority 2013, dated 2017).

What was measured:
Assay type in all cases: in vivo
[1] = tested on: Echinochloa crus-galli var. crus-galli; experiment: Test Example 4: herbicidal effect by application to foliage (diluvial soil, plastic box); details: foliage application, 320 g/ha
In short: (§1)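 Emulsion-formulated compound, diluted to a predetermined g/ha dose, applied by small sprayer to leaves and stems of 14-day-old seedlings grown in sterilized diluvial soil. Effect rated on 0–5 herbicidal-ratio scale three weeks on.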

Alopecurus myosuroides = experiment: as above; details: foliage application, 320 g/ha
In short: as §1

Stellaria media = experiment: as above; details: foliage application, 320 g/ha
In short: as §1

Apera spica-venti. = experiment: as above; details: foliage application, 320 g/ha
In short: as §1

Galium spurium = experiment: as above; details: foliage application, 320 g/ha
In short: as §1

Amaranthus retroflexus = experiment: as above; details: foliage application, 320 g/ha
In short: as §1

Avena fatua = experiment: as above; details: foliage application, 320 g/ha
In short: as §1

Chenopodium album = experiment: as above; details: foliage application, 320 g/ha
In short: as §1

Veronica persica = experiment: as above; details: foliage application, 320 g/ha
In short: as §1

Digitaria ciliaris = experiment: as above; details: foliage application, 320 g/ha
In short: as §1

Abutilon theophrasti = experiment: as above; details: foliage application, 320 g/ha
In short: as §1

Lolium multiflorum Lam. = experiment: as above; details: foliage application, 320 g/ha
In short: as §1

Setaria viridis = experiment: as above; details: foliage application, 320 g/ha
In short: as §1

[2] = tested on: directly sowed Oryza sativa; experiment: Test Example 3: effect on crop by application to foliage (Wagner pot, water depth 0.1-0.5 cm); details: Nineteenth Table; application to foliage; application herbicide amount 320 g/ha
In short: (§2)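 Rice-field weeds and directly sown rice were grown 14 days in flooded alluvial soil (water depth 0.1–0.5 cm) at 25–30 °C in a greenhouse. An emulsion formulation diluted to the stated g/ha rate was sprayed onto stems and leaves. Effects were scored on a 0–5 scale (herbicidal ratio bands) three weeks after treatment.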

[3] = tested on: Echinochloa crus-galli var. crus-galli; experiment: Test Example 3: herbicidal effect by application to foliage (Wagner pot, water depth 0.1-0.5 cm); details: Nineteenth Table; application to foliage; application herbicide amount 320 g/ha
In short: as §2

Cyperus difformis = experiment: as above; details: Nineteenth Table; application to foliage; application herbicide amount 320 g/ha
In short: as §2

Leptochloa chinensis = experiment: as above; details: Nineteenth Table; application to foliage; application herbicide amount 320 g/ha
In short: as §2

SMILES	H (Echinochloa crus-galli var. crus-galli) herbicidal effect grade [1]	J (Alopecurus myosuroides) herbicidal effect grade (Alopecurus myosuroides)	P (Stellaria media) herbicidal effect grade (Stellaria media)	L (Apera spica-venti.) herbicidal effect grade (Apera spica-venti.)	Q (Galium spurium) herbicidal effect grade (Galium spurium)	N (Amaranthus retroflexus) herbicidal effect grade (Amaranthus retroflexus)	I (Avena fatua) herbicidal effect grade (Avena fatua)	O (Chenopodium album) herbicidal effect grade (Chenopodium album)	R (Veronica persica) herbicidal effect grade (Veronica persica)	F (Digitaria ciliaris) herbicidal effect grade (Digitaria ciliaris)	M (Abutilon theophrasti) herbicidal effect grade (Abutilon theophrasti)	K (Lolium multiflorum Lam.) herbicidal effect grade (Lolium multiflorum Lam.)	G (Setaria viridis) herbicidal effect grade (Setaria viridis)	b (effect on crop grade) [2]	H (herbicidal effect grade) [3]	E (herbicidal effect grade) (Cyperus difformis)	D (herbicidal effect grade) (Leptochloa chinensis)
Cc1cc(-c2nnc3c(C(=O)Nc4nnnn4C)ccc(C(F)(F)F)n23)n(C)n1 [2-062]	5 (Herbicidal ratio of 90% or more (almost completely withered))	4 (Herbicidal ratio of 70% or more and less than 90%)	5 (Herbicidal ratio of 90% or more (almost completely withered))	5 (Herbicidal ratio of 90% or more (almost completely withered))	5 (Herbicidal ratio of 90% or more (almost completely withered))	5 (Herbicidal ratio of 90% or more (almost completely withered))	5 (Herbicidal ratio of 90% or more (almost completely withered))	5 (Herbicidal ratio of 90% or more (almost completely withered))	5 (Herbicidal ratio of 90% or more (almost completely withered))	5 (Herbicidal ratio of 90% or more (almost completely withered))	5 (Herbicidal ratio of 90% or more (almost completely withered))	5 (Herbicidal ratio of 90% or more (almost completely withered))	5 (Herbicidal ratio of 90% or more (almost completely withered))	5 (Herbicidal ratio of 90% or more (almost completely withered))	5 (Herbicidal ratio of 90% or more (almost completely withered))	5 (Herbicidal ratio of 90% or more (almost completely withered))	5 (Herbicidal ratio of 90% or more (almost completely withered))
COc1cc(OC)cc(-c2nnc3c(C(=O)Nc4nnnn4C)ccc(C(F)(F)F)n23)c1 [2-063]	5 (Herbicidal ratio of 90% or more (almost completely withered))	3 (Herbicidal ratio of 40% or more and less than 70%)	5 (Herbicidal ratio of 90% or more (almost completely withered))	3 (Herbicidal ratio of 40% or more and less than 70%)	4 (Herbicidal ratio of 70% or more and less than 90%)	5 (Herbicidal ratio of 90% or more (almost completely withered))	4 (Herbicidal ratio of 70% or more and less than 90%)	5 (Herbicidal ratio of 90% or more (almost completely withered))	5 (Herbicidal ratio of 90% or more (almost completely withered))	5 (Herbicidal ratio of 90% or more (almost completely withered))	5 (Herbicidal ratio of 90% or more (almost completely withered))	3 (Herbicidal ratio of 40% or more and less than 70%)	5 (Herbicidal ratio of 90% or more (almost completely withered))	3 (Herbicidal ratio of 40% or more and less than 70%)	5 (Herbicidal ratio of 90% or more (almost completely withered))	5 (Herbicidal ratio of 90% or more (almost completely withered))	5 (Herbicidal ratio of 90% or more (almost completely withered))
Cn1nnnc1NC(=O)c1ccc(C(F)(F)F)n2c(-c3cc(Cl)cc(Cl)c3)nnc12 [2-064]	3 (Herbicidal ratio of 40% or more and less than 70%)	0 (Herbicidal ratio of 5% or less (almost no effect))	5 (Herbicidal ratio of 90% or more (almost completely withered))	0 (Herbicidal ratio of 5% or less (almost no effect))	1 (Herbicidal ratio of 5% or more and less than 20%)	5 (Herbicidal ratio of 90% or more (almost completely withered))	0 (Herbicidal ratio of 5% or less (almost no effect))	5 (Herbicidal ratio of 90% or more (almost completely withered))	5 (Herbicidal ratio of 90% or more (almost completely withered))	3 (Herbicidal ratio of 40% or more and less than 70%)	5 (Herbicidal ratio of 90% or more (almost completely withered))	0 (Herbicidal ratio of 5% or less (almost no effect))	2 (Herbicidal ratio of 20% or more and less than 40%)	0 (Herbicidal ratio of 5% or less (almost no effect))	1 (Herbicidal ratio of 5% or more and less than 20%)	5 (Herbicidal ratio of 90% or more (almost completely withered))	4 (Herbicidal ratio of 70% or more and less than 90%)
COc1ccc(Cc2nnc3c(C(=O)Nc4nnnn4C)ccc(C(F)(F)F)n23)cc1 [2-065]	5 (Herbicidal ratio of 90% or more (almost completely withered))	3 (Herbicidal ratio of 40% or more and less than 70%)	5 (Herbicidal ratio of 90% or more (almost completely withered))	4 (Herbicidal ratio of 70% or more and less than 90%)	3 (Herbicidal ratio of 40% or more and less than 70%)	5 (Herbicidal ratio of 90% or more (almost completely withered))	4 (Herbicidal ratio of 70% or more and less than 90%)	5 (Herbicidal ratio of 90% or more (almost completely withered))	5 (Herbicidal ratio of 90% or more (almost completely withered))	5 (Herbicidal ratio of 90% or more (almost completely withered))	5 (Herbicidal ratio of 90% or more (almost completely withered))	3 (Herbicidal ratio of 40% or more and less than 70%)	5 (Herbicidal ratio of 90% or more (almost completely withered))	3 (Herbicidal ratio of 40% or more and less than 70%)	5 (Herbicidal ratio of 90% or more (almost completely withered))	5 (Herbicidal ratio of 90% or more (almost completely withered))	5 (Herbicidal ratio of 90% or more (almost completely withered))
